Patent publication US9988407B2, “Prodrugs of prostate specific membrane antigen (PSMA) inhibitor” (THE JOHNS HOPKINS UNIVERSITY, priority 2014, dated 2018)
Entries after “also recorded” stand apart in the source; their conditions may differ.

Legend:
[1] = Chemical stability in HBSS buffer (pH 7.4) / simulated gastric fluid; assay type: physicochemical; conditions: for Percentage remaining: HBSS, 10 μM, 37° C.; for chemical stability: chemical hydrolysis / HBSS buffer
Experimental: The chemical stability of prodrugs was evaluated using simulated gastric fluid (pH 1.2) and Hanks' Balanced Salt Solution (HBSS) buffer (pH 7.4). Briefly, prodrugs were spiked (10 μM) in respective solutions and incubated at 37° C. for 1 h. At predetermined time points (0, 30 and 60 min), aliquots of 100 μL were removed and diluted with 100 μL of water. Prodrug disappearance was monitored using the developed liquid chromatography and tandem mass spectrometry (LC/MS/MS) method described below.
(§1) For LC/MS/MS, prodrugs were separated with Thermo Scientific Accela UPLC system coupled to Accela open autosampler on an Agilent C18 (100×2.1 mm id) UPLC column. The autosampler was temperature controlled and operating at 10° C. The mobile phase used for the chromatographic separation was composed of acetonitrile/water containing 0.1% formic acid and was run at a flow rate of 0.5 mL/minute for 4.5 minutes using gradient elution. The column effluent was monitored using TSQ Vantage triple-quadrupole mass spectrometric detector, equipped with an electrospray probe set in the positive ionization mode. Samples were introduced into the ionization source through a heated nebulized probe (350° C.).
(§2) For quantification of compound remaining, disappearance of prodrugs was measured from ratio of peak areas of analyte to IS. Percentage remaining was calculated in the following manner: […]

[2] = Metabolic stability in mouse plasma; assay type: in vitro ADME; conditions: 10 μM, 37° C.
Experimental: (§3) For metabolic stability, plasma (mouse, dog, monkey and human) and liver microsomes (mouse, dog, monkey and human) were used. For stability, prodrugs (10 μM) were spiked in each matrix and incubated in an orbital shaker at 37° C. At predetermined times (0, 30 and 60 min), 100 μL aliquots of the mixture in triplicate were removed and the reaction quenched by addition of three times the volume of ice cold acetonitrile spiked with the internal standard (losartan 5 μM). The samples were vortexed for 30 s and centrifuged 12000 g for 10 min. 50 μL supernatant diluted with 50 μL water was transferred to a 250 μL polypropylene vial sealed with a Teflon cap. Prodrug disappearance was monitored over time using a liquid chromatography and tandem mass spectrometry (LC/MS/MS) method as described below.
as §1, §2

[3] = Metabolic stability in mouse liver S9; assay type: in vitro ADME; conditions: Mouse S9, 10 μM, 37° C.
[4] = Metabolic stability in mouse liver microsomes; assay type: in vitro ADME; conditions: 10 μM, 37° C.
Experimental: as §3, §1, §2

[5] = Metabolic stability in human plasma; assay type: in vitro ADME; conditions: 10 μM, 37° C.
Experimental: as §3, §1, §2

[6] = Metabolic stability in human liver microsomes; assay type: in vitro ADME; conditions: 10 μM, 37° C.
Experimental: as §3, §1, §2

[7] = In vivo pharmacokinetics in mice, peroral, bioanalysis method 2 (2-PMPA release); conditions: for stability of carboxylic esters in vivo: mouse
Experimental: Blood was obtained via cardiac puncture and tissue dissected at 0 min, 15 min, 30 min, 1 h, 2 h, and 4 h post dose (n=3 per time point). Single time point studies were conducted at 30 min (N=3) following dosing. Plasma was harvested from blood by centrifugation. Mean concentration-time data was used for pharmacokinetic (PK) analysis. Non-compartmental-analysis module in WinNonlin® (version 5.3) was used to assess pharmacokinetic parameters. Peak plasma concentrations (Cmax) and time to Cmax (Tmax) were the observed values. Area under the curve (AUC) was calculated by log-linear (p.o.) trapezoidal rule to the end of sample collection (AUClast) and extrapolated to infinity (AUC0-∞) by dividing the last quantifiable concentration by the terminal disposition rate constant (ke). […] The tissues were stored in −20° C. for 1 h and then homogenized. The calibration curve for the tissues was developed using naïve mouse brains from untreated animals as a matrix. For sciatic nerve, the nerves were weighed and homogenized in 50 μL methanol and the calibration curve was developed using naïve sciatic nerves from untreated animals as a matrix. The samples were vortexed and centrifuged. […] Supernatant was dried under a gentle stream of nitrogen at 45° C. and the residue reconstituted with 75 μL of acetonitrile and vortexed. 25 μL of derivatizing agent N-tert-Butyldimethysilyl-N-methyltrifluoro-acetamide (MTBSTFA) was added to microcentrifuge tubes, vortexed, and heated at ˜60 OC for 40 min. At the end of 40 min, the derivatized samples ˜75 μL were transferred to a 250 μL polypropylene vials and were analyzed via LC/MS/MS. Chromatographic analysis was performed using an Accela™ ultra high-performance system consisting of an analytical pump, and an autosampler coupled with TSQ Vantage mass spectrometer (Thermo Fisher Scientific Inc., Waltham Mass.). […] The total run time for each analyte was 5.0 min. Chromatographic analysis will be performed on Accela UPLC.

[8] = In vitro metabolic stability screen in plasma and liver subcellular fractions (results in words); assay type: in vitro ADME; conditions: 60 min incubation
Experimental: as §3, §1
For quantification of compound remaining, disappearance of prodrugs was measured from ratio of peak areas of analyte to IS. Percentage remaining was calculated in the following manner:
In general, the prodrugs were screened by an in vitro metabolic stability screen, and if positive, followed by an in vivo single time point pharmacokinetic study, and in select cases, an in vivo full time course pharmacokinetic study (FIG. 3). In this Example, the four acidic functional groups in 2-PMPA were systematically capped. The carboxylic acids were first masked with simple alkyl esters (Compounds 1, 2, and 3). In vitro chemical and metabolic stability of the prodrugs then were conducted, following 60 min incubation in plasma stability screens for prodrugs.

[9] = In vivo pharmacokinetics in mice, peroral, bioanalysis method 1 (total prodrug exposure); conditions: mice, oral dosing
Experimental: Blood was obtained via cardiac puncture and tissue dissected at 0 min, 15 min, 30 min, 1 h, 2 h, and 4 h post dose (n=3 per time point). Single time point studies were conducted at 30 min (N=3) following dosing. Plasma was harvested from blood by centrifugation. Mean concentration-time data was used for pharmacokinetic (PK) analysis. Non-compartmental-analysis module in WinNonlin® (version 5.3) was used to assess pharmacokinetic parameters. Peak plasma concentrations (Cmax) and time to Cmax (Tmax) were the observed values. Area under the curve (AUC) was calculated by log-linear (p.o.) trapezoidal rule to the end of sample collection (AUClast) and extrapolated to infinity (AUC0-∞) by dividing the last quantifiable concentration by the terminal disposition rate constant (ke). Terminal half-life (t1/2) was estimated from first order kinetics: t1/2=0.693/ke.
Briefly, prior to extraction, frozen samples were thawed on ice. For plasma extraction, 50 μL of the calibration standards or samples were transferred into silanized microcentrifuge tubes. Sample preparation involved a single liquid extraction by addition of 300 μL of methanol as extraction solution with internal standard (i.e., 5 μM of 2-PMSA in methanol), followed by vortexing for 30 s and then centrifugation at 12000 g for 10 min. Supernatant was transferred (˜250 μL) and evaporated to dryness at 40° C. under a gentle stream of nitrogen. The residue was reconstituted with 100 μL of derivatizing agent, n-butanol with 3N HCl, and samples were vortexed. The samples were heated at ˜60 OC in a shaking water bath for 30 min. At the end of 30 min, the derivatized samples were allowed to cool at room temperature and dried again for removal of derivatizing reagent, under a gentle stream of nitrogen. The residue was reconstituted in 100 μL of 30% acetonitrile in water v/v. The samples were vortexed and centrifuged again. ˜80 μL supernatant was transferred to a 250 μL polypropylene vial sealed with a Teflon cap and a volume of 10 μL was injected onto the ultra-performance liquid chromatography (UPLC) instrument for quantitative analysis. Chromatographic analysis was performed using an Accela™ ultra high-performance system consisting of an analytical pump, and an autosampler coupled with TSQ Vantage mass spectrometer (Thermo Fisher Scientific Inc., Waltham Mass.). […] The mobile phase used was composed of 0.1% formic acid in acetonitrile and 0.1% formic acid in H2O with gradient elution, starting with 20% (organic) linearly increasing to 65% up to 2.5 min, maintaining at 65% (2.5-3.5 min) and reequilibrating to 30% by 5 min. The total run time for each analyte was 5.0 min.

Structure (SMILES) | Percentage remaining ([2]; 0 min) [%] | Percentage remaining ([2]; 30 min) [%] | Percentage remaining ([2]; 60 min) [%] | Percentage remaining ([3]; 0 min) [%] | Percentage remaining ([3]; 30 min) [%] | Percentage remaining ([3]; 60 min) [%] | Percentage remaining ([4]; 0 min) [%] | Percentage remaining ([4]; 30 min) [%] | Percentage remaining ([4]; 60 min) [%] | Percentage remaining ([5]; 0 min) [%] | Percentage remaining ([5]; 30 min) [%] | Percentage remaining ([5]; 60 min) [%] | Percentage remaining ([6]; 0 min) [%] | Percentage remaining ([6]; 30 min) [%] | Percentage remaining ([6]; 60 min) [%] | in vitro metabolic stability [8] | permeability in vivo [9] | chemical stability [1] | also measured
COC(=O)CCC(CP(=O)(O)O)C(=O)OC (stereo not drawn) [Compound 1, [5-(Methyloxy)-2-(methoxycarbonyl)-5-oxopentyl]phosphonic acid] | 100 | 102 | 101 | 100 | 101 | 86 | 100 | 102 | 103 | 100 | 100 | 86 | 100 | 90 | 96 | too stable; also recorded: stable in plasma |  |  | Percentage remaining ([1]; 0 min): 100%; Percentage remaining ([1]; 30 min): 92%; Percentage remaining ([1]; 60 min): 94%; stability of carboxylic esters in vivo [7]: too stable in vivo; in vitro metabolic stability ([8]; listed as JHU 2106): too stable
CCCOC(=O)CCC(CP(=O)(O)O)C(=O)OCCC (stereo not drawn) [Compound 3, [5-Oxo-5-propoxy-2-(propoxycarbonyl)pentyl]phosphonic acid] |  |  |  |  |  |  |  |  |  |  |  |  |  |  |  | too stable | then the propyl ester |  | stability of carboxylic esters in vivo [7]: too stable in vivo
COC(=O)CCC(CP(=O)(OCOC(=O)OC(C)C)OCOC(=O)OC(C)C)C(=O)OC (stereo not drawn) [Compound 6, Dimethyl 2-((bis{[(isopropoxycarbonyl)oxy]methoxy}phosphoryl)methyl)-pentanedioate] | 100 | 2 | 0.4 | 100 | 1 | 0.1 | 100 | 2 | 0.1 |  |  |  |  |  |  | unstable in mouse plasma and mouse liver microsomes | good compound penetrability; also recorded: good permeability | stable to chemical hydrolysis | Percentage remaining ([1]; 0 min): 100%; Percentage remaining ([1]; 30 min): 101%; Percentage remaining ([1]; 60 min): 93%; chemical stability ([1]; listed as JHU 2110): stable in HBSS buffer; permeability in vivo ([9]; listed as JHU 2110): most permeable
COC(=O)C(CCC(=O)O)CP(=O)(OCOC(=O)OC(C)C)OCOC(=O)OC(C)C (stereo not drawn) [Compound 7, 4-((Bis{[(isopropoxycarbonyl)oxy]methoxy}phosphoryl)methyl)-5-methoxy-5-oxopentanoic acid] |  |  |  |  |  |  |  |  |  |  |  |  |  |  |  | unstable in mouse plasma and mouse liver microsomes | good compound penetrability; also recorded: good permeability | stable to chemical hydrolysis | 
CCOC(=O)CCC(CP(=O)(OCOC(=O)C(C)(C)C)OCOC(=O)C(C)(C)C)C(=O)OCC (stereo not drawn) [Compound 18, Diethyl 2-({bis[(pivaloyloxy)methoxy]phosphoryl}methyl)pentanedioate] | 0 | 0 | 0 | 100 | 1 | 0 | 100 | 2 | 0 | 100 | 50 | 18 | 100 | 1 | 0 | too stable |  |  | 
CC(C)(C)C(=O)OCOC(=O)C(CCC(=O)O)CP(=O)(OCOC(=O)C(C)(C)C)OCOC(=O)C(C)(C)C (stereo not drawn) [Compound 23] |  |  |  |  |  |  |  |  |  |  |  |  |  |  |  | instability in plasma and liver subcellular fractions | highest permeability | sufficient chemical stability | 
CC(C)OC(=O)OC(C)OC(=O)C(CCC(=O)O)CP(=O)(OC(C)OC(=O)OC(C)C)OC(C)OC(=O)OC(C)C (stereo not drawn) [Compound 24] | 100 | 0 | 0 |  |  |  | 100 | 1 | 0 | 100 | 106 | 75 | 100 | 27 | 8 | instability in plasma and liver subcellular fractions |  | sufficient chemical stability | oral bioavailability ([7]; rodents and dogs): excellent oral bioavailability
